From ChEMBL document CHEMBL5331117, “X-Ray Conformation and Structure-Activity Relationships of MA026, a Reversible Tight Junction Opener” (J Med Chem, 2023)

The compounds below were run on MDCK-II (assay: Induction of claudin-1 mediated tight junction opening in MDCK-II cells assessed as increase in FITC-conjugated dextran incubated for 5 hrs relative to control). Details: Canis lupus familiaris.
Assay type: cell-based
Design: concentration or dose not given beside the values

First: CCCCCCC[C@@H](O)CC(=O)N[C@@H](CC(C)C)C(=O)N[C@H](CCC(=O)O)C(=O)N[C@H](CCC(N)=O)C(=O)N[C@@H](C(=O)N[C@H](CC(C)C)C(=O)N[C@@H](CCC(N)=O)C(=O)N[C@@H]1COC(=O)[C@H](C)NC(=O)[C@@H](CCC(N)=O)NC(=O)[C@H](CC(C)C)NC(=O)[C@H](CC(C)C)NC(=O)[C@@H](CCC(N)=O)NC(=O)[C@@H](CC(C)C)NC(=O)[C@@H](C(C)C)NC1=O)C(C)C
Second: CCCCCCC[C@@H](O)CC(=O)N[C@@H](CC(C)C)C(=O)N[C@H](CCC(=O)O)C(=O)N[C@H](CCC(N)=O)C(=O)N[C@@H](C(=O)N[C@H](CC(C)C)C(=O)N[C@@H](CCC(N)=O)C(=O)N[C@@H]1COC(=O)[C@H]([C@@H](C)CC)NC(=O)[C@@H](CCC(N)=O)NC(=O)[C@H](C)NC(=O)[C@H](CC(C)C)NC(=O)[C@@H](CCC(N)=O)NC(=O)[C@@H](CC(C)C)NC(=O)[C@@H](C(C)C)NC1=O)C(C)C
The Activity of the first is lower: 0.2% for the first, 9.8% for the second.

Going from `CCCCCCC[C@@H](O)CC(=O)N[C@@H](CC(C)C)C(=O)N[C@H](C)C(=O)N[C@H](CCC(N)=O)C(=O)N[C@@H](C(=O)N[C@H](CC(C)C)C(=O)N[C@@H](CCC(N)=O)C(=O)N[C@@H]1COC(=O)[C@H]([C@@H](C)CC)NC(=O)[C@@H](CCC(N)=O)NC(=O)[C@H](CC(C)C)NC(=O)[C@H](CC(C)C)NC(=O)[C@@H](CCC(N)=O)NC(=O)[C@@H](CC(C)C)NC(=O)[C@@H](C(C)C)NC1=O)C(C)C` to `CCCCCCCCCC(=O)N[C@@H](CC(C)C)C(=O)N[C@H](CCC(=O)O)C(=O)N[C@H](CCC(N)=O)C(=O)N[C@@H](C(=O)N[C@H](CC(C)C)C(=O)N[C@@H](CCC(N)=O)C(=O)N[C@@H]1COC(=O)[C@H]([C@@H](C)CC)NC(=O)[C@@H](CCC(N)=O)NC(=O)[C@@H](CC(C)C)NC(=O)[C@H](CC(C)C)NC(=O)[C@@H](CCC(N)=O)NC(=O)[C@@H](CC(C)C)NC(=O)[C@@H](C(C)C)NC1=O)C(C)C`, the Activity falls from 30.7% to -2.3%.

With `CC[C@H](C)[C@@H]1NC(=O)[C@@H](CCC(N)=O)NC(=O)[C@H](CC(C)C)NC(=O)[C@H](CC(C)C)NC(=O)[C@@H](CCC(N)=O)NC(=O)[C@@H](CC(C)C)NC(=O)[C@@H](C(C)C)NC(=O)[C@H](NC(=O)[C@H](CCC(N)=O)NC(=O)[C@@H](CC(C)C)NC(=O)[C@H](NC(=O)[C@@H](CCC(N)=O)NC(=O)[C@@H](CCC(=O)O)NC(=O)[C@H](CC(C)C)NC(=O)CCC2CCCCC2)C(C)C)COC1=O` the Activity was 18.7%.

Same assay, conditions: Canis lupus familiaris, filed as opener

Compared with `CCCCCCCCCC(=O)N[C@H](CC(C)C)C(=O)N[C@H](CCC(=O)O)C(=O)N[C@H](CCC(N)=O)C(=O)N[C@@H](C(=O)N[C@H](CC(C)C)C(=O)N[C@@H](CCC(N)=O)C(=O)N[C@@H]1COC(=O)[C@H]([C@@H](C)CC)NC(=O)[C@@H](CCC(N)=O)NC(=O)[C@H](CC(C)C)NC(=O)[C@H](CC(C)C)NC(=O)[C@@H](CCC(N)=O)NC(=O)[C@@H](CC(C)C)NC(=O)[C@@H](C(C)C)NC1=O)C(C)C`, `CCCCCCC[C@@H](O)CC(=O)N[C@@H](CC(C)C)C(=O)N[C@H](CCC(=O)O)C(=O)N[C@H](CCC(N)=O)C(=O)N[C@@H](C(=O)N[C@H](CC(C)C)C(=O)N[C@@H](CCC(N)=O)C(=O)N[C@@H]1COC(=O)[C@H]([C@@H](C)CC)NC(=O)[C@@H](CCC(N)=O)NC(=O)[C@H](CC(C)C)NC(=O)[C@H](CC(C)C)NC(=O)[C@@H](C)NC(=O)[C@@H](CC(C)C)NC(=O)[C@@H](C(C)C)NC1=O)C(C)C` is higher in Activity: 56.8% for the first, 85.3% for the second.

`CCCCCCC[C@@H](O)CC(=O)N[C@@H](CC(C)C)C(=O)N[C@H](CCC(=O)O)C(=O)N[C@H](CCC(N)=O)C(=O)N[C@@H](C(=O)N[C@H](CC(C)C)C(=O)N[C@@H](C)C(=O)N[C@@H]1COC(=O)[C@H]([C@@H](C)CC)NC(=O)[C@@H](CCC(N)=O)NC(=O)[C@H](CC(C)C)NC(=O)[C@H](CC(C)C)NC(=O)[C@@H](CCC(N)=O)NC(=O)[C@@H](CC(C)C)NC(=O)[C@@H](C(C)C)NC1=O)C(C)C` showed an Activity of 94.8%.
